Assay results reported in the NIST ThermoML archive (doi:10.1016/j.fluid.2014.01.019).
Numbers after ± are expanded uncertainties.

Assay: xn = mol fraction of the nth substance listed
Conditions: 101 kPa, Liquid; for mass density: Vibrating tube method; for speed of sound: Frequency=2 MHz, Linear variable-path acoustic interferometer

Cc1cccc(Cl)c1 [3-chlorotoluene] + OCc1ccccc1
Conditions	mass density, 298.15 K [kg/m3]	mass density, 303.15 K [kg/m3]	mass density, 308.15 K [kg/m3]	mass density, 313.15 K [kg/m3]	speed of sound, 303.15 K [m/s]	speed of sound, 313.15 K [m/s]
x2 = 0.0583	1065.82 ± 0.15	1061.18 ± 0.15	1056.8 ± 0.15	1052.23 ± 0.15	1298 ± 8	1294 ± 8
x2 = 0.1107	1064.36 ± 0.15	1059.84 ± 0.15	1055.47 ± 0.15	1050.83 ± 0.15	1316 ± 8	1304 ± 8
x2 = 0.1903	1062.34 ± 0.15	1057.86 ± 0.15	1053.42 ± 0.15	1048.82 ± 0.15	1340 ± 8	1321 ± 8
x2 = 0.2401	1061.05 ± 0.15	1056.6 ± 0.15	1052.17 ± 0.15	1047.95 ± 0.15	1356 ± 8	1331 ± 8
x2 = 0.3028	1059.47 ± 0.15	1055.2 ± 0.15	1050.6 ± 0.15	1046.35 ± 0.15	1374 ± 8	1343 ± 8
x2 = 0.3703	1057.61 ± 0.15	1053.44 ± 0.15	1048.89 ± 0.15	1044.54 ± 0.15	1394 ± 9	1356 ± 8
x2 = 0.4442	1055.83 ± 0.15	1051.49 ± 0.15	1047.05 ± 0.15	1042.9 ± 0.15	1414 ± 9	1371 ± 8
x2 = 0.5405	1053.04 ± 0.15	1049.21 ± 0.15	1044.67 ± 0.15	1040.69 ± 0.14	1440 ± 9	1389 ± 8
x2 = 0.6285	1050.88 ± 0.15	1046.99 ± 0.15	1042.53 ± 0.15	1038.52 ± 0.14	1462 ± 9	1409 ± 9
x2 = 0.7019	1049.03 ± 0.15	1045.09 ± 0.15	1040.75 ± 0.14	1036.95 ± 0.14	1477 ± 9	1422 ± 9
x2 = 0.7558	1047.64 ± 0.15	1043.62 ± 0.15	1039.43 ± 0.14	1035.23 ± 0.14	1487 ± 9	1435 ± 9
x2 = 0.8109	1046.31 ± 0.15	1042.35 ± 0.14	1038.15 ± 0.14	1034.05 ± 0.14	1494 ± 9	1446 ± 9
x2 = 0.8546	1045.2 ± 0.14	1041.4 ± 0.14	1037.11 ± 0.14	1033.02 ± 0.14	1501 ± 9	1455 ± 9
x2 = 0.8946	1044.04 ± 0.14	1040.31 ± 0.14	1036.18 ± 0.14	1032.43 ± 0.14	1504 ± 9	1462 ± 9
x2 = 0.9498	1042.49 ± 0.14	1038.83 ± 0.14	1034.89 ± 0.14	1030.91 ± 0.14	1510 ± 9	1474 ± 9
